Measurements as given in ChEMBL document CHEMBL1201862, “PubChem BioAssay data set” (2004).
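Five concentrations, 48 hours, 96-well plates. GI50 marks 50% less growth.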 Activity calls are given as the source filed them. Cut-off read from the data, not from the text of the source: active = GI50 up to about 1.1 µM and inactive = higher.

Assays:
Assay in all cases: NCI tumour cell line growth inhibition, 48 h
A549 = system: A549
ACHN = system: ACHN
CAKI-1 = system: CAKI-1
CCRF-CEM = system: CCRF-CEM
COLO 205 = system: COLO 205
DU-145 = system: DU-145
EKVX = system: EKVX
HCC 2998 = system: HCC 2998
HCT-116 = system: HCT-116
HCT-15 = system: HCT-15
HL-60 = system: HL-60
HOP-62 = system: HOP-62
HOP-92 = system: HOP-92
HT-29 = system: HT-29
Hs-578T = system: Hs-578T
IGROV-1 = system: IGROV-1
K562 = system: K562
KM12 = system: KM12
LOX IMVI = system: LOX IMVI
M14 = system: M14
MCF7 = system: MCF7
MDA-MB-231 = system: MDA-MB-231
MDA-MB-435 = system: MDA-MB-435
MDA-N = system: MDA-N
MOLT-4 = system: MOLT-4
Malme-3M = system: Malme-3M
NCI-H226 = system: NCI-H226
NCI-H23 = system: NCI-H23
NCI-H460 = system: NCI-H460
NCI/ADR-RES = system: NCI/ADR-RES
OVCAR-3 = system: OVCAR-3
OVCAR-4 = system: OVCAR-4
OVCAR-5 = system: OVCAR-5
OVCAR-8 = system: OVCAR-8
PC-3 = system: PC-3
RPMI-8226 = system: RPMI-8226
RXF 393 = system: RXF 393
SF-268 = system: SF-268
SF-295 = system: SF-295
SF-539 = system: SF-539
SK-MEL-28 = system: SK-MEL-28
SK-MEL-2 = system: SK-MEL-2
SK-MEL-5 = system: SK-MEL-5
SK-OV-3 = system: SK-OV-3
SN12C = system: SN12C
SNB-19 = system: SNB-19
SR = system: SR
SW-620 = system: SW-620
T47D = system: T47D
TK-10 = system: TK-10
U-251 = system: U-251
UACC-257 = system: UACC-257
UACC-62 = system: UACC-62
UO-31 = system: UO-31

SMILES: CC1(C)N=C(/C(Cl)=[N+](/[O-])C(=O)c2ccc(Cl)cc2)C(C)(C)N1O
- GI50 (A549): > 100 µM (inactive)
- GI50 (ACHN): 38.5 µM (inactive)
- GI50 (CAKI-1): 19.2 µM (inactive)
- GI50 (CCRF-CEM): 7.52 µM (inactive)
- GI50 (COLO 205): 17 µM (inactive)
- GI50 (DU-145): > 100 µM (inactive)
- GI50 (EKVX): > 100 µM (inactive)
- GI50 (HCC 2998): 25.9 µM (inactive)
- GI50 (HCT-116): 16.3 µM (inactive)
- GI50 (HCT-15): 19.8 µM
- GI50 (HL-60): 18.5 µM (inactive)
- GI50 (HOP-62): 39 µM (inactive)
- GI50 (HOP-92): 17.3 µM (inactive)
- GI50 (HT-29): 22.1 µM (inactive)
- GI50 (Hs-578T): 36.2 µM (inactive)
- GI50 (IGROV-1): 41 µM (inactive)
- GI50 (K562): 5.51 µM (inactive)
- GI50 (KM12): 45.3 µM (inactive)
- GI50 (LOX IMVI): 6.76 µM (inactive)
- GI50 (M14): 18.2 µM (inactive)
- GI50 (MCF7): 17.3 µM (inactive)
- GI50 (MDA-MB-231): 21.8 µM (inactive)
- GI50 (MDA-MB-435): 22.3 µM (inactive)
- GI50 (MDA-N): 17.1 µM (inactive)
- GI50 (MOLT-4): > 10 µM (inactive)
- GI50 (Malme-3M): 17.7 µM (inactive)
- GI50 (NCI-H226): 25.9 µM (inactive)
- GI50 (NCI-H23): 22.1 µM (inactive)
- GI50 (NCI-H460): 45.5 µM (inactive)
- GI50 (NCI/ADR-RES): 25.9 µM (inactive)
- GI50 (OVCAR-3): 17.5 µM (inactive)
- GI50 (OVCAR-4): 26.4 µM (inactive)
- GI50 (OVCAR-5): 23.6 µM (inactive)
- GI50 (OVCAR-8): 20.4 µM (inactive)
- GI50 (PC-3): 21.3 µM (inactive)
- GI50 (RPMI-8226): 26.5 µM (inactive)
- GI50 (RXF 393): 22 µM (inactive)
- GI50 (SF-268): 29.4 µM (inactive)
- GI50 (SF-295): 56 µM (inactive)
- GI50 (SF-539): 21.3 µM (inactive)
- GI50 (SK-MEL-28): 18.5 µM (inactive)
- GI50 (SK-MEL-2): 52.7 µM (inactive)
- GI50 (SK-MEL-5): 20 µM (inactive)
- GI50 (SK-OV-3): > 100 µM (inactive)
- GI50 (SN12C): 23.8 µM (inactive)
- GI50 (SNB-19): > 100 µM (inactive)
- GI50 (SR): 28.3 µM (inactive)
- GI50 (SW-620): 20.3 µM (inactive)
- GI50 (T47D): 38.3 µM (inactive)
- GI50 (TK-10): 19.8 µM (inactive)
- GI50 (U-251): 26.4 µM (inactive)
- GI50 (UACC-257): 18.2 µM (inactive)
- GI50 (UACC-62): > 10 µM (inactive)
- GI50 (UO-31): > 100 µM (inactive)
